The source made the active and inactive calls. The calls are words filed in the database; no cut-off is given here.
Tests used:
[1] = tested on: MDA-MB-231; assay: Induction of apoptosis in human MDA-MB-231 cells assessed as late apoptotic cells after 24 hrs by Annexin-V FITC/propidium iodide staining based flow cytometric analysis (reference value: 1.28%); type: cell-based; conditions: mda-mb-231, 24 h
[2] = tested on: Mus musculus; assay: Toxicity in BALB/c mouse xenografted with mouse 4T1 cells assessed as effect on body weight at 4 mg/kg, iv measured at day 22 post last dose; type: organism-based; conditions: in vivo
[3] = tested on: MDA-MB-231; assay: Induction of apoptosis in human MDA-MB-231 cells assessed as viable cells after 24 hrs upon light irradiation by Annexin-V FITC/propidium iodide staining based flow cytometric analysis (reference value: 93.27%); type: functional
[4] = tested on: Mus musculus; assay: Toxicity in BALB/c mouse xenografted with mouse 4T1 cells assessed as effect on body weight at 4 mg/kg, iv pre-tretaed for 24 hrs followed by 50 J/cm2 light irradiation and measured at day 22 post dose; type: organism-based; conditions: in vivo
[5] = Selectivity index, ratio of dark toxicity against mouse 4T1 cells at 5 uM to phototoxicity against mouse 4T1 cells at 5 uM; type: cell-based; conditions: read-out: Selectivity Index
[6] = Tmax in tumor of BALB/c mouse xenografted with mouse 4T1 cells at 10 mg/kg, iv measured after […] by fluorescence assay; type: ADME, organism-based, Neoplasm
[7] = Drug uptake in human MDA-MB-231 cells up to 10 uM after 4 hrs by flow cytometric analysis; type: ADME, cell-based; conditions: mda-mb-231, 4 h
[8] = tested on: MDA-MB-231; assay: Induction of apoptosis in human MDA-MB-231 cells assessed as necrotic cells after 24 hrs upon light irradiation by Annexin-V FITC/propidium iodide staining based flow cytometric analysis (reference value: 4.24%); type: functional
[9] = Drug uptake in lung of BALB/c mouse xenografted with mouse 4T1 cells at 10 mg/kg, iv measured at 12 hrs post injection by IVIS spectrum imaging; type: ADME, organism-based; conditions: in vivo
[10] = tested on: MCF7; assay: Phototoxicity against human MCF7 cells assessed as cell viability at 5 uM preincubated for 4 hrs followed by 0.5 to 2 J/cm2 light irradiation and measured after 24 hrs by MTT assay; type: functional, cell-based
[11] = tested on: Mus musculus; assay: Hepatotoxicity in BALB/c mouse xenografted with mouse 4T1 cells assessed as pathological changes in liver at 4 mg/kg, iv pre-tretaed for 24 hrs followed by 50 J/cm2 light irradiation and measured at day 22 post dose by hematoxylin and eosin staining based light microscopic analysis; type: toxicity, organism-based; conditions: in vivo
[12] = tested on: 4T1; assay: Phototoxicity against mouse 4T1 cells assessed as cell viability at 5 uM preincubated for 4 hrs followed by 0.5 to 2 J/cm2 light irradiation and measured after 24 hrs by MTT assay; type: functional, cell-based
[13] = tested on: Mus musculus; assay: Nephrotoxicity in BALB/c mouse xenografted with mouse 4T1 cells assessed as pathological changes in kidney at 4 mg/kg, iv pre-tretaed for 24 hrs followed by 50 J/cm2 light irradiation and measured at day 22 post dose by hematoxylin and eosin staining based light microscopic analysis; type: toxicity, organism-based; conditions: in vivo
[14] = tested on: 4T1; assay: Antitumor activity against mouse 4T1 cells xenografted in BALB/c mouse assessed as tumor growth inhibition at 4 mg/kg, iv pretreated for 24 hrs followed by 50 J/cm2 light irradiation and measured at day 22 post last dose; type: functional, organism-based
[15] = tested on: MDA-MB-231; assay: Induction of ROS generation in human MDA-MB-231 cells incubated with DCF-DA probe for 30 mins followed by 2 J/cm2 light irradiation and measured after 1 hr by flow cytometric analysis (reference value: 4.38%); type: functional
[16] = Dark toxicity against human MDA-MB-231 cells assessed as cell viability at 5 uM after 24 hrs by MTT assay; type: cell-based; conditions: mda-mb-231, 24 h
[17] = tested on: MDA-MB-231; assay: Induction of apoptosis in human MDA-MB-231 cells assessed as late apoptotic cells after 24 hrs upon light irradiation by Annexin-V FITC/propidium iodide staining based flow cytometric analysis (reference value: 1.28%); type: functional
[18] = Drug uptake in spleen of BALB/c mouse xenografted with mouse 4T1 cells at 10 mg/kg, iv measured at 12 hrs post injection by IVIS spectrum imaging; type: ADME, organism-based; conditions: in vivo
[19] = Dark toxicity against mouse 4T1 cells assessed as cell viability at 5 uM after 24 hrs by MTT assay; type: cell-based; conditions: 4t1, 24 h
[20] = tested on: MDA-MB-231; assay: Induction of ROS generation in human MDA-MB-231 cells incubated with DCF-DA probe for 30 mins prior to ROS scavenger NAC addition 1 hr before 2 J/cm2 light irradiation and measured after 1 hr post irradiation by flow cytometric analysis; type: functional, cell-based
[21] = tested on: MDA-MB-231; assay: Induction of apoptosis in human MDA-MB-231 cells assessed as early apoptotic cells after 24 hrs upon light irradiation by Annexin-V FITC/propidium iodide staining based flow cytometric analysis (reference value: 1.22%); type: functional
[22] = Drug uptake in heart of BALB/c mouse xenografted with mouse 4T1 cells at 10 mg/kg, iv measured at 12 hrs post injection by IVIS spectrum imaging; type: ADME, organism-based; conditions: in vivo
[23] = Drug uptake in human MDA-MB-231 cells at 5 to 10 uM after 4 hrs by fluorescence microscopic analysis; type: ADME, cell-based; conditions: mda-mb-231, 4 h
[24] = Drug uptake in tumor of BALB/c mouse xenografted with mouse 4T1 cells at 10 mg/kg, iv measured up to 3 to 24 hrs post injection by fluorescence assay; type: ADME, organism-based, Neoplasm; conditions: in vivo
[25] = Drug uptake in mitochondria of human MDA-MB-231 cells after 4 hrs by Mito tracker green-based confocal laser scanning microscopic analysis; type: ADME; conditions: mda-mb-231, 4 h
[26] = Drug uptake in tumor of BALB/c mouse xenografted with mouse 4T1 cells at 10 mg/kg, iv measured at 12 hrs post injection by IVIS spectrum imaging; type: ADME, organism-based, Neoplasm; conditions: in vivo
[27] = tested on: MDA-MB-231; assay: Phototoxicity against human MDA-MB-231 cells assessed as cell viability at 5 uM preincubated for 4 hrs followed by 0.5 to 2 J/cm2 light irradiation and measured after 24 hrs by MTT assay; type: functional, cell-based
[28] = Selectivity index, ratio of dark toxicity against human MCF7 at 5 uM cells to phototoxicity against human MCF7 cells at 5 uM; type: cell-based; conditions: read-out: Selectivity Index
[29] = Selectivity index, ratio of dark toxicity against human MDA-MB-231 cells at 5 uM to phototoxicity against human MDA-MB-231 cells at 5 uM; type: cell-based; conditions: read-out: Selectivity Index
[30] = Drug uptake in kidney of BALB/c mouse xenografted with mouse 4T1 cells at 10 mg/kg, iv measured at 12 hrs post injection by IVIS spectrum imaging; type: ADME, organism-based; conditions: in vivo
[31] = tested on: Mus musculus; assay: Toxicity in BALB/c mouse xenografted with mouse 4T1 cells assessed as pathological changes in lung at 4 mg/kg, iv pre-tretaed for 24 hrs followed by 50 J/cm2 light irradiation and measured at day 22 post dose by hematoxylin and eosin staining based light microscopic analysis; type: organism-based; conditions: in vivo
[32] = Induction of singlet oxygen generation in cell free condition upon 635 nm semiconductor laser light irradiation by singlet oxygen sensor green dye based fluorescence spectrophotometeric analysis; type: functional
[33] = tested on: MDA-MB-231; assay: Induction of ROS generation in human MDA-MB-231 cells incubated with DCF-DA probe for 30 mins by flow cytometric analysis (reference value: 4.38%); type: cell-based; conditions: mda-mb-231, 0.5 h
[34] = tested on: MDA-MB-231; assay: Induction of apoptosis in human MDA-MB-231 cells assessed as early apoptotic cells after 24 hrs by Annexin-V FITC/propidium iodide staining based flow cytometric analysis (reference value: 1.22%); type: cell-based; conditions: mda-mb-231, 24 h
[35] = tested on: 4T1; assay: Induction of apoptosis in mouse 4T1 cells xenografted in BALB/c mouse at 4 mg/kg, iv pretreated for 24 hrs followed by 50 J/cm2 light irradiation by TUNEL assay; type: functional, organism-based
[36] = Dark toxicity against human MCF7 cells assessed as cell viability at 5 uM after 24 hrs by MTT assay; type: cell-based; conditions: mcf7, 24 h
[37] = Induction of apoptosis in human MDA-MB-231 cells assessed as viable cells after 24 hrs by Annexin-V FITC/propidium iodide staining based flow cytometric analysis (reference value: 93.27%); type: cell-based; conditions: read-out: Activity
[38] = tested on: Mus musculus; assay: Toxicity in BALB/c mouse xenografted with mouse 4T1 cells assessed as pathological changes in spleen at 4 mg/kg, iv pre-tretaed for 24 hrs followed by 50 J/cm2 light irradiation and measured at day 22 post dose by hematoxylin and eosin staining based light microscopic analysis; type: organism-based; conditions: in vivo
[39] = tested on: MDA-MB-231; assay: Induction of apoptosis in human MDA-MB-231 cells assessed as necrotic cells after 24 hrs by Annexin-V FITC/propidium iodide staining based flow cytometric analysis (reference value: 4.24%); type: cell-based; conditions: mda-mb-231, 24 h

Tmax [6]: 12 h
Drug uptake [7]: Not Active
Drug uptake [9]: Not Active
Drug uptake [18]: Not Active
Drug uptake [22]: Not Active
Drug uptake [23]: Not Active
Drug uptake [24]: Active
Drug uptake [25]: Active
Drug uptake [26]: Active
Drug uptake [30]: Not Active
Activity [33]: 5.7%
Compound: COC(C)C1=C(C)c2cc3[nH]c(cc4nc(cc5[nH]c(cc1n2)c(C)c5CCC(=O)O)C(CCC(=O)O)=C4C)c(C)c3C(C)O (centres undefined)
Activity [1]: 1.76%
Activity [2]: Non-Toxic
Activity [3]: 58.77%
Activity [4]: Non-Toxic
selectivity ratio at 5 µM [5]: 12
Activity [8]: 6.83%
Activity [10]: Active
Activity [11]: Non-Toxic
Activity [12]: Active
Activity [13]: Non-Toxic
TGI [14]: inactive
Activity [15]: 25.13%
Activity [16]: Non-Toxic
Activity [17]: 30.5%
Activity [19]: Non-Toxic
Activity [20]: inactive
Activity [21]: 3.91%
Activity [27]: Active
selectivity ratio at 5 µM [28]: 16.8
selectivity ratio at 5 µM [29]: 18.8
Activity [31]: Non-Toxic
Activity [32]: Dose-dependent effect
Activity [34]: 1.99%
Activity [35]: Active
Activity [36]: Non-Toxic
viability at 24 h [37]: 92.2%
Activity [38]: Non-Toxic
Activity [39]: 4.02%

— ChEMBL document CHEMBL4229478, “Synthesis, Characterization, and Biological Evaluation of a Porphyrin-Based Photosensitizer and Its Isomer for Effective Photodynamic Therapy against Breast Cancer” (J Med Chem, 2018)
